Measured values reported in patent publication US8354432B2, “Cyclic derivatives as modulators of chemokine receptor activity” (Bristol-Myers Squibb Company, priority 2006, dated 2013).

Molecular target: T1, CCR1 (Homo sapiens, UniProt P32246)
T1 construct: the THP-1 cell line, which expresses the endogenous CCR1 receptor; endogenous in cells; host or cells: THP-1 cells (human monocytic line); the text also allows human PBMC or human monocytes
T1 sequence (P32246 1-355): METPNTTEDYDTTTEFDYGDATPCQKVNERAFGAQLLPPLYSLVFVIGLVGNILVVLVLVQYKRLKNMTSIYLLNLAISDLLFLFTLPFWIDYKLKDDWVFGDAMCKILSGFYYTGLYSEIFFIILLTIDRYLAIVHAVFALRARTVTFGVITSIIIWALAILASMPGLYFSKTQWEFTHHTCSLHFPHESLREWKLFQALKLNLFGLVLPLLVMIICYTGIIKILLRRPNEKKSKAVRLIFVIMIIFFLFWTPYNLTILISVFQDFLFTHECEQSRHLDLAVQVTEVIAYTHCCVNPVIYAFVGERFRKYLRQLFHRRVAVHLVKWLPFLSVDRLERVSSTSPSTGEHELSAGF
Test: Antagonism of MIP-1α binding to human THP-1 cells (CCR1 binding)
Conditions: not given
Method: Antagonism of MIP-1α Binding to Human THP-1 Cells
Compounds of the present invention have activity in the antagonism of MIP-1α binding to human THP-1 cells described here.
Millipore filter plates (#MABVN1250) are treated with 100 μl of binding buffer (0.5% bovine serum albumin, 20 mM HEPES buffer and 5 mM magnesium chloride in RPMI 1640 media) for thirty minutes at room temperature. To measure binding, 50 μl of binding buffer, with or without a known concentration of compound, is combined with 50 μl of ^125-I labeled human MIP-1α (to give a final concentration of 50 pM radioligand) and 50 μl of binding buffer containing 5×10^5 cells. Cells used for such binding assays can include the THP-1 cell line, which expresses the endogenous CCR1 receptor, or human peripheral blood mononuclear cells, isolated by Ficoll-Hypaque gradient centrifugation, or human monocytes (Weiner et al., J. Immunol. Methods, 1980, 36, 89). The mixture of compound, cells and radioligand is incubated at room temperature for thirty minutes. Plates are placed onto a vacuum manifold, vacuum applied, and the plates washed three times with binding buffer containing 0.5M NaCl. The plastic skirt is removed from the plate, the plate allowed to air dry, the wells punched out and counted. The percent inhibition of binding is calculated using the total counts obtained in the absence of any competing compound and the background binding determined by addition of 100 nM MIP-1α in place of the test compound.

| Compound | Ki |
| --- | --- |
| COc1cc(N2CCC(C(Cn3nc(C(F)(F)F)c(Cl)c3C)NC(=O)CF)CC2)c(Cl)cc1Cl (racemic) [Example 4p, N-(2-(4-Chloro-5-methyl-3-(trifluoromethyl)-1H-pyrazol-1-yl)-1-(1-(2,4-dichloro-5-methoxyphenyl)piperidin-4-yl)ethyl)-2-fluoroacetamide] | 4.3 nM |

Same assay, conditions: 125-I labeled human MIP-1α (50 pM), THP-1 cells expressing endogenous CCR1, room temperature, thirty minutes; read-out: CCR1 Binding Ki (n = 1 unless otherwise noted)

| Compound | Ki |
| --- | --- |
| COc1cc(N2CCC(C)(C(O)Cn3nc(C(F)(F)F)c(Cl)c3C)CC2)ccc1Cl (racemic) [Example 11, 1-(1-(4-Chloro-3-methoxyphenyl)-4-methylpiperidin-4-yl)-2-(4-chloro-5-methyl-3-(trifluoromethyl)-1H-pyrazol-1-yl)ethanol] | ~1250 nM |
| COc1cc(N2CCC(C(Cn3nc(C(F)(F)F)c(Cl)c3C)NC(=O)CO)CC2)c(Cl)cc1Cl (centres unmarked) [Example 4i, N-(2-(4-Chloro-5-methyl-3-(trifluoromethyl)-1H-pyrazol-1-yl)-1-(1-(2,4-dichloro-5-methoxyphenyl)piperidin-4-yl)ethyl)-2-hydroxyacetamide] | 5.15 ± 1.68 nM |
| COc1cc(N2CCC(C(N)Cn3nc(C(F)(F)F)c(Cl)c3C)CC2)c(Cl)cc1Cl (racemic) [Example 4a, 2-(4-Chloro-5-methyl-3-(trifluoromethyl)-1H-pyrazol-1-yl)-1-(1-(2,4-dichloro-5-methoxyphenyl)piperidin-4-yl)ethanamine] | 125 nM |
| COc1cc(N2CCC(C(O)Cn3nc(C(F)(F)F)nc3C)CC2)ccc1Cl (racemic) [Example 2h, 1-(1-(4-Chloro-3-methoxyphenyl)piperidin-4-yl)-2-(5-methyl-3-(trifluoromethyl)-1H-1,2,4-triazol-1-yl)ethanol] | 156 nM |

Other lines, results leading:

| Ki | Compound |
| --- | --- |
| 3.46 ± 0.48 nM | COc1cc(N2CCC(C(Cn3nc(C(F)(F)F)c(Cl)c3C)NC(=O)[C@@H](C)O)CC2)c(Cl)cc1Cl (mixture of isomers) [Example 4n, (2R)-N-(2-(4-Chloro-5-methyl-3-(trifluoromethyl)-1H-pyrazol-1-yl)-1-(1-(2,4-dichloro-5-methoxyphenyl)piperidin-4-yl)ethyl)-2-hydroxypropanamide] |
| 1020 nM | COc1cccc(N2CCC(C(O)Cn3nc(C(F)(F)F)c(Cl)c3C)CC2)c1 (racemic) [Example 15b, 2-(4-Chloro-5-methyl-3-(trifluoromethyl)-1H-pyrazol-1-yl)-1-(1-(3-methoxyphenyl)piperidin-4-yl)ethanol] |
| 145 nM | COc1cc(N2CCC(C(Cn3nc(C(F)(F)F)cc3C)NC(=O)CN)CC2)ccc1Cl (single isomer, unassigned) [Example 5c, 2-amino-N-(1-(1-(4-chloro-3-methoxyphenyl)piperidin-4-yl)-2-(5-methyl-3-(trifluoromethyl)-1H-pyrazol-1-yl)ethyl)acetamide] |
| ~2220 nM | COc1cc(N2CCC(C(O)Cn3nc(N)c4cccnc43)CC2)ccc1Cl (racemic) [Example 2c, 2-(3-Amino-1H-pyrazolo[3,4-b]pyridin-1-yl)-1-(1-(4-chloro-3-methoxyphenyl)piperidin-4-yl)ethanol] |
| 6.8 nM | COc1cc(N2CCC(C(Cn3nc(C(F)(F)F)c(Cl)c3C)NC(C)=O)CC2)c(Cl)cc1Cl (racemic) [Example 4c, N-(2-(4-Chloro-5-methyl-3-(trifluoromethyl)-1H-pyrazol-1-yl)-1-(1-(2,4-dichloro-5-methoxyphenyl)piperidin-4-yl)ethyl)acetamide] |
| ~2200 nM | N-(1-(1-(4-chloro-3-methoxyphenyl)piperidin-4-yl)-2-(5-methyl-3-(trifluoromethyl)-1H-pyrazol-1-yl)ethyl)-2-hydroxyacetamide [Example 5b] |
